Patent US12312359B2 (Vitae Pharmaceuticals, LLC, priority 2016, dated 2025)

Columns and labels:
[1] = molecular target: T1, biotinylated wild-type menin and MLL-AF9 fusion protein (menin/MLL binding) (Homo sapiens, UniProt O00255); experiment: Assay 1: menin/MLL binding AlphaLISA assay, wild-type menin; conditions: Table 30; column head does not say wild-type or mutated menin
T1 construct: made in house; host or cells: menin: E. coli; MLL-AF9-FLAG: HEK293 cells, used as cleared lysate
T1 sequence (O00255 1-610): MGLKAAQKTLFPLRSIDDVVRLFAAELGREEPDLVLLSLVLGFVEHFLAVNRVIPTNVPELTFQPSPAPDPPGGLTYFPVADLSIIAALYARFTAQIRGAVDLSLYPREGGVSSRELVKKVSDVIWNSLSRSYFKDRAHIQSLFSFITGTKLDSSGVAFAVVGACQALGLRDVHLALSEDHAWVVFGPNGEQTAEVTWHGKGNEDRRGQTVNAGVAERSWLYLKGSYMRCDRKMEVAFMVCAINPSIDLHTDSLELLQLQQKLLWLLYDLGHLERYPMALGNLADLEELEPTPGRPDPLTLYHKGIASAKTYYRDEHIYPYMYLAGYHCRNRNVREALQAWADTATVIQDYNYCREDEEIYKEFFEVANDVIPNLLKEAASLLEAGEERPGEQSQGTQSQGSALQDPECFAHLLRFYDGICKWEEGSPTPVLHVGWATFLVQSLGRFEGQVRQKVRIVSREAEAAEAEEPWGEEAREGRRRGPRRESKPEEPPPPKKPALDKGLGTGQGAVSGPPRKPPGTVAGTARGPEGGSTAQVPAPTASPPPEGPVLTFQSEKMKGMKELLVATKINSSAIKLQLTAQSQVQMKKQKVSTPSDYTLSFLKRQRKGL
Outline: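 Compound was preincubated 30 min at room temperature with biotinylated menin (5 nM) and MLL-AF9-FLAG lysate from HEK293 cells, pH 7.4 buffer with 5% DMSO and DTT. Bead-based Alpha signal after 60 min with streptavidin donor and anti-FLAG acceptor beads; four-parameter logistic fit gave IC50.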

[2] = tested on: human acute monocytic leukemia cell line MV-4-11; experiment: Assay 2: cell proliferation assay (ATP quantitation, CellTiter-Glo), MV-4-11; assay type: cell-based; conditions: MV-4-11 cells
Outline: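 MV-4-11 cells, 1.67×10^4 per well in medium with 10% FBS, were exposed to compound for 72 h at 37° C., 5% CO2; HL-60 cells served as toxicity control. Proliferation read as ATP content by CellTiter-Glo luminescence.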

| SMILES | IC50 [1] [nM] | EC50 ([2]; Homo sapiens, MV4-11, 72 h) [nM] | EC50 ([2]; 72 h) [nM] |
| --- | --- | --- | --- |
| CC1(C)C(=O)Nc2cc(CN3CCC4(CCN(c5ncncc5Oc5ccc(F)cc5OC5CCCC5)C4)C3)ccc21 (stereo not drawn) [Example 193, 6-((7-(5-(2-(cyclopentyloxy)-4-fluorophenoxy)pyrimidin-4-yl)-2,7-diazaspiro[4.4]nonan-2-yl)methyl)-3,3-dimethylindolin-2-one] | < 100 | < 100 |  |
| CN(C)C(=O)c1ccc(-c2cc(F)ccc2Oc2cncnc2N2CCC3(CCN(Cc4ccc5[nH]c(=O)[nH]c5c4)C3)C2)c(C2CC2)c1 (stereo not drawn) [Example 45, 2-cyclopropyl-5′-fluoro-N,N-dimethyl-2′-((4-(7-((2-oxo-2,3-dihydro-1H-benzo[d]imidazol-5-yl)methyl)-2,7-diazaspiro[4.4]nonan-2-yl)pyrimidin-5-yl)oxy)-[1,1′-biphenyl]-4-carboxamide] | < 100 | < 100 |  |
| CC(=O)N[C@H]1CC[C@@H](CN2CCC3(CCN(c4ncncc4Oc4ccc(F)cc4-c4ccc(C#N)cc4C4CC4)C3)C2)CC1 (stereo partly drawn) [Example 190A, N-((1s,4s)-4-((7-(5-((4′-cyano-2′-cyclopropyl-5-fluoro-[1,1′-biphenyl]-2-yl)oxy)pyrimidin-4-yl)-2,7-diazaspiro[4.4]nonan-2-yl)methyl)cyclohexyl) acetamide] | < 100 | 100 to 1000 |  |
| CC(C)c1ccccc1-c1cc(F)ccc1Oc1cncnc1N1CC2(CN(C(=O)Cc3ccc(S(C)(=O)=O)cc3)C2)C1 [Example 229, 1-(6-(5-((5-fluoro-2′-isopropyl-[1,1′-biphenyl]-2-yl)oxy)pyrimidin-4-yl)-2,6-diazaspiro[3.3]heptan-2-yl)-2-(4-(methylsulfonyl)phenyl)ethan-1-one] | < 100 | 100 to 1000 |  |
| CC(C)C1CCC(=O)N1c1cc(F)ccc1Oc1cncnc1N1CCC2(CCN(Cc3ccc4[nH]c(=O)[nH]c4c3)C2)C1 (stereo not drawn) [Example 218, 5-((7-(5-(4-fluoro-2-(2-isopropyl-5-oxopyrrolidin-1-yl)phenoxy)pyrimidin-4-yl)-2,7-diazaspiro[4.4]nonan-2-yl)methyl)-1,3-dihydro-2H-benzo[d]imidazol-2-one] | < 100 | ≥ 1000 |  |
| CC(C)N(C(=O)c1cc(F)ccc1Oc1cncnc1N1CCC2(CCC(N)(Cc3ccc(C#N)cc3)C2)C1)C(C)C (single isomer, unassigned) [Example 22A, 2-((4-(7-amino-7-(4-cyanobenzyl)-2-azaspiro[4.4]nonan-2-yl)pyrimidin-5-yl)oxy)-5-fluoro-N,N-diisopropylbenzamide] | < 100 | ≥ 1000 |  |
| CC(C)N(C(=O)c1cc(F)ccc1Oc1cncnc1N1CC2(CN(C(=O)Cc3ccc(C#N)cc3)C2)C1)C(C)C [Example 116, 2-((4-(6-(2-(4-cyanophenyl)acetyl)-2,6-diazaspiro[3.3]heptan-2-yl)pyrimidin-5-yl)oxy)-5-fluoro-N,N-diisopropylbenzamide] | < 100 | 100 to 1000 |  |
| CC(C)c1scnc1-c1cc(F)ccc1Oc1cncnc1N1CCC2(CCN(Cc3ccc4[nH]c(=O)[nH]c4c3)C2)C1 (stereo not drawn) [Example 190, 5-((7-(5-(4-fluoro-2-(5-isopropylthiazol-4-yl)phenoxy)pyrimidin-4-yl)-2,7-diazaspiro[4.4]nonan-2-yl)methyl)-1,3-dihydro-2H-benzo[d]imidazol-2-one] | < 100 | < 100 |  |
| NC1Cc2ccc(-c3cc(F)ccc3Oc3cncnc3N3CC4(CN(CC5CCOCC5)C4)C3)cc2C1 (stereo not drawn) [Example 68, 5-(5-fluoro-2-((4-(6-((tetrahydro-2H-pyran-4-yl)methyl)-2,6-diazaspiro[3.3]heptan-2-yl)pyrimidin-5-yl)oxy)phenyl)-2,3-dihydro-1H-inden-2-amine] | < 100 | ≥ 1000 |  |
| CCN(CC)C(=O)c1cc(F)ccc1Oc1cncnc1N1CCC2(CCN(Cc3ccc4[nH]c(=O)[nH]c4c3)C2)C1 (stereo not drawn) [Example 173, N,N-diethyl-5-fluoro-2-((4-(7-((2-oxo-2,3-dihydro-1H-benzo[d]imidazol-5-yl)methyl)-2,7-diazaspiro[4.4]nonan-2-yl)pyrimidin-5-yl)oxy)benzamide] | < 100 | 100 to 1000 |  |
| CC(=O)NCCn1c(=O)[nH]c2cc(CN3CCC4(CCN(c5ncncc5Oc5ccc(F)cc5C(=O)N(C)C(C)C)C4)C3)ccc21 (stereo not drawn) [Example 123, 2-((4-(7-((1-(2-acetamidoethyl)-2-oxo-2,3-dihydro-1H-benzo[d]imidazol-5-yl)methyl)-2,7-diazaspiro[4.4]nonan-2-yl)pyrimidin-5-yl)oxy)-5-fluoro-N-isopropyl-N-methylbenzamide] | < 100 | ≥ 1000 |  |
| CC(C)c1ncncc1-c1cc(F)ccc1Oc1cncnc1N1CC2(CCN(C(=O)Cc3ccc(C#N)cc3)C2)C1 [Example 149, 4-(2-(2-(5-(4-fluoro-2-(4-isopropylpyrimidin-5-yl)phenoxy)pyrimidin-4-yl)-2,6-diazaspiro[3.4]octan-6-yl)-2-oxoethyl)benzonitrile] | < 100 | < 100 |  |
| CC(C)(O)c1ccccc1-c1cc(F)ccc1Oc1cncnc1N1CCC2(CCN(Cc3ccc4[nH]c(=O)[nH]c4c3)C2)C1 (stereo not drawn) [Example 63, 5-((7-(5-((5-fluoro-2′-(2-hydroxypropan-2-yl)-[1,1′-biphenyl]-2-yl)oxy)pyrimidin-4-yl)-2,7-diazaspiro[4.4]nonan-2-yl)methyl)-1H-benzo[d]imidazol-2(3H)-one] | < 100 | < 100 |  |
| CC(C)N(C(=O)c1cc(F)ccc1Nc1cncnc1N1CCC2(CC1)CN(C1CCC(NS(C)(=O)=O)CC1)C2)C(C)C (single isomer, unassigned) [Example 248A, 5-fluoro-N,N-diisopropyl-2-((4-(2-(4-(methylsulfonamido)cyclohexyl)-2,7-diazaspiro[3.5]nonan-7-yl)pyrimidin-5-yl)amino) benzamide] | < 100 | 100 to 1000 |  |
| CC(C)N(C)C(=O)c1cc(F)ccc1Oc1cncnc1N1CCC2(CCN(Cc3ccc4c(c3)[nH]c(=O)n4CCN(C)C)C2)C1 (stereo not drawn) [Example 124, 2-((4-(7-((1-(2-(dimethylamino)ethyl)-2-oxo-2,3-dihydro-1H-benzo[d]imidazol-5-yl)methyl)-2,7-diazaspiro[4.4]nonan-2-yl)pyrimidin-5-yl)oxy)-5-fluoro-N-isopropyl-N-methylbenzamide] | < 100 | 100 to 1000 |  |
| CC(=O)N[C@H]1CC[C@H](CCN2CC3(C2)CN(c2ncncc2Oc2ccc(F)cc2-c2ccc(C#N)cc2C2CC2)C3)CC1 [Example 143, N-((1r,4r)-4-(2-(6-(5-((4′-cyano-2′-cyclopropyl-5-fluoro-[1,1′-biphenyl]-2-yl)oxy)pyrimidin-4-yl)-2,6-diazaspiro[3.3]heptan-2-yl)ethyl)cyclohexyl) acetamide] | < 100 | ≥ 1000 |  |
| CC(C)N(C(=O)c1cc(F)ccc1Oc1cncnc1N1CC2(CC(N(C)C3CCOCC3)C2)C1)C(C)C [Example 240, 5-fluoro-N,N-diisopropyl-2-((4-(6-(methyl(tetrahydro-2H-pyran-4-yl)amino)-2-azaspiro[3.3]heptan-2-yl)pyrimidin-5-yl)oxy)benzamide] | < 100 | < 100 |  |
| CN(C(=O)c1cc(F)ccc1Oc1cncnc1N1CCC2(CCN(Cc3ccc4[nH]c(=O)[nH]c4c3)C2)C1)C1CC1 (stereo not drawn) [Example 165, N-cyclopropyl-5-fluoro-N-methyl-2-((4-(7-((2-oxo-2,3-dihydro-1H-benzo[d]imidazol-5-yl)methyl)-2,7-diazaspiro[4.4]nonan-2-yl)pyrimidin-5-yl)oxy)benzamide] | < 100 | ≥ 1000 |  |
| CC(C)N(C)C(=O)c1cc(F)ccc1Oc1cncnc1N1CC2(CN(CC[C@H]3CC[C@H](NC(=O)OC(C)(C)C)CC3)C2)C1 [Example 134, tert-butyl ((1r,4r)-4-(2-(6-(5-(4-fluoro-2-(isopropyl(methyl)carbamoyl)phenoxy)pyrimidin-4-yl)-2,6-diazaspiro[3.3]heptan-2-yl)ethyl)cyclohexyl) carbamate] | < 100 | 100 to 1000 |  |
| Cc1cc(C#N)ccc1-c1cc(F)ccc1Oc1cncnc1N1CCC2(CCN(Cc3ccc4[nH]c(=O)[nH]c4c3)C2)C1 (stereo not drawn) [Example 226, 5′-fluoro-2-methyl-2′-((4-(7-((2-oxo-2,3-dihydro-1H-benzo[d]imidazol-5-yl)methyl)-2,7-diazaspiro[4.4]nonan-2-yl)pyrimidin-5-yl)oxy)-[1,1′-biphenyl]-4-carbonitrile] | < 100 |  | ≥ 1000 |
| COC(=O)N[C@H]1CC[C@H](CN2CCC3(CC2)CN(c2ncncc2Oc2ccc(F)cc2C(=O)N(C)C(C)C)C3)CC1 [Example 95, methyl ((1r,4r)-4-((2-(5-(4-fluoro-2-(isopropyl(methyl)carbamoyl)phenoxy)pyrimidin-4-yl)-2,7-diazaspiro[3.5]nonan-7-yl)methyl)cyclohexyl) carbamate] | < 100 | 100 to 1000 |  |
